Experiments:
[1] = Expert perfumer evaluation of malodor reduction, dynamic olfactometer, against 3H3MHA; set-up: species or system human; key to EXPERT RATING: −2: significant increase in malodor; −1: slight increase in malodor; 0: no effect; 1: slight malodor reduction; 2: good malodor reduction; 3: complete malodor reduction; details: for EFFECTIVE CONCENTRATION: MO 3H3MHA held fixed at mid-intensity (0.5), headspace concentration providing an effective level; for EXPERT RATING: MO 3H3MHA held fixed at mid-intensity (0.5 on scale 0-1), rating of degree of malodor reduction at the effective concentration
Method: The effectiveness of perfuming materials in compositions to reduce the perception of, for example, axillary sweat malodors, was evaluated by an expert perfumer by 1) selecting target axillary malodor components, 2) delivering target malodor components and candidate malodor reducing materials to the nose of an expert perfumer at carefully controlled concentrations, 3) having the expert perfumer identify the concentration at which malodor reduction was obtained, and 4) rating the degree of reduction achieved at the concentration identified in step 3. […] Two surprising results were be observed. The first is that not all tested materials yielded complete malodor reduction, often differing depending on which component they were tested against. […] Intensity and concentration were material-dependent and spanned a wide range of values on both axes. […] Thus, neither the required concentrations, nor performance ratings could be predicted a priori by one skilled in the art, yet are necessary and sufficient for designing malodor reducing compositions for use in perfuming products.
(§1) In this method, a dynamic multi-channel olfactometer was used to precisely deliver known gas phase concentrations of the test materials, using forced evaporation, into a stream of air emanating from a smelling port. The appropriate concentration of the malodor component was established prior to its being mixed with the candidate malodor reducing substance. The concentration was set at a concentration sufficient to produce an intensity of 0.5 (mid-intensity) on a scale of 0-1. The expert perfumer then dynamically adjusted the concentration of the candidate malodor reducing substance to determine the effective concentration, while maintaining a fixed concentration of the malodor component. Once the appropriate concentration had been determined, the expert perfumer evaluated the perception of the mixtures repeatedly over a period of several minutes, taking breaks in between sniffs to avoid adaptation to the components being tested, before providing a rating.
(§2) Tests were performed in a forced-evaporation, dynamic olfactometer, with malodor component concentrations held fixed at a mid-intensity. Ratings of effectiveness were based in the following scale: −2 (significant increase in malodor), −1 (slight increase in malodor), 0 (no effect), 1 (slight malodor reduction), 2 (good malodor reduction), 3 (complete malodor reduction). The malodor (MO) component abbreviations are 3H3MHA (3-methyl-3-hydroxyhexanoic acid), 3M2HA (3-methyl-2-hexenoic acid), 3M3SH (3-methyl-3-sulphanylhexanol).

[2] = Expert perfumer evaluation of malodor reduction, dynamic olfactometer, against 3M3SH; set-up: species or system human; details: for EFFECTIVE CONCENTRATION: MO 3M3SH held fixed at mid-intensity (0.5), headspace concentration providing an effective level; for EXPERT RATING: MO 3M3SH held fixed at mid-intensity (0.5 on scale 0-1), rating of degree of malodor reduction at the effective concentration
Method: (§3) The effectiveness of perfuming materials in compositions to reduce the perception of, for example, axillary sweat malodors, was evaluated by an expert perfumer by 1) selecting target axillary malodor components, 2) delivering target malodor components and candidate malodor reducing materials to the nose of an expert perfumer at carefully controlled concentrations, 3) having the expert perfumer identify the concentration at which malodor reduction was obtained, and 4) rating the degree of reduction achieved at the concentration identified in step 3.
as §1, §2

[3] = Expert perfumer evaluation of malodor reduction, dynamic olfactometer, against 3M2HA; set-up: species or system human; details: for EFFECTIVE CONCENTRATION: MO 3M2HA held fixed at mid-intensity (0.5), headspace concentration providing an effective level; for EXPERT RATING: MO 3M2HA held fixed at mid-intensity (0.5 on scale 0-1), rating of degree of malodor reduction at the effective concentration
Method: as §3, §1, §2

[4] = Naive panelist evaluation of malodor reduction at mid-intensity dosages, passive evaporation in jars, against 4MOA; set-up: species or system human; details: MO 4MOA dosage 7.5%, test compound dosage 1.5% in DiPG on cellulose pads; jar equilibrated 4 hours at room temperature; N 26 panelists
Method: The performance of fragrancing products was evaluated by non-expert consumers under passive evaporation conditions. This was achieved by: 1) selecting target axillary malodor components, 2) delivering target malodor components and candidate malodor reducing materials (separately) to the noses of naïve panelists at a range of dosages established under passive evaporation conditions 3) having the panelists evaluate the overall intensity of each presented sample, 4) determining the average mid-intensity concentration for both the malodors and malodor reducing candidates of interest, 5) delivering samples containing a malodor component and a malodor reducing candidate of interest mixed together at the dosages determined in step 4, along with separate control samples containing either alone or neither, to the noses of panelists, 6) having panelists evaluate the malodor intensity for each presented sample, and 7) determining the degree of malodor reduction produced by the candidate malodor reducing material by comparing the malodor intensity ratings of the mixture to those of the control samples. […]

| Compound | EFFECTIVE CONCENTRATION [1] | EXPERT RATING [1] | EFFECTIVE CONCENTRATION [2] | EXPERT RATING [2] | EFFECTIVE CONCENTRATION [3] | EXPERT RATING [3] | Reduction (%) [4] |
| --- | --- | --- | --- | --- | --- | --- | --- |
| CC(=O)c1ccc2ccccc2c1 | 1.37E−02 micrograms/L AIR | 3 | 3.42E−02 micrograms/L AIR | 2 | 1.37E−02 micrograms/L AIR | 3 | – |
| 1-(3,3/5,5-dimethyl-1-cyclohexen-1-yl)-4-penten-1-one | 1.22E+00 micrograms/L AIR | 3 | 1.22E+00 micrograms/L AIR | 3 | 2.53E−03 micrograms/L AIR | 3 | – |
| CC(C)=CCCC(C)CC=O (racemic) | 1.30E−01 micrograms/L AIR | 3 | – | – | 1.30E−01 micrograms/L AIR | 2 | – |
| C/C=C/C(=O)C1C(C)=CCCC1(C)C (racemic) | 1.08E−02 micrograms/L AIR | 3 | – | – | 1.30E−02 micrograms/L AIR | 2 | – |
| Cc1ccc2c(c1)CC(C)(CO)C2 (racemic) | 3.13E−02 micrograms/L AIR | 3 | 7.83E−02 micrograms/L AIR | 3 | 4.70E−02 micrograms/L AIR | 3 | – |
| C=C1CCCC(C)(C)C1C(=O)OC (racemic) [(+−)-METHYL 2,2-DIMETHYL-6-METHYLIDENECYCLOHEXANECARBOXYLATE] | 8.00E−01 micrograms/L AIR | 3 | 4.00E−01 micrograms/L AIR | 2 | 4.00E−01 micrograms/L AIR | 3 | – |
| CCOC(=O)[C@@H]1[C@@H](C(C)C)[C@@H]2C=C[C@H]1C2 (racemic) [ETHYL 1RS,2SR,3SR,4SR-3-ISOPROPYLBICYCLO[2.2.1]HEPT-5-ENE-2-CARBOXYLATE] | 1.03E+00 micrograms/L AIR | 3 | 2.07E+01 micrograms/L AIR | 3 | 2.58E+00 micrograms/L AIR | 2 | – |
| CCCCC[C@H]1C(=O)CC[C@@H]1CC(=O)OC (racemic) [METHYL 2-((1RS,2RS)-3-OXO-2-PENTYLCYCLOPENTYL)ACETATE] | 5.73E−01 micrograms/L AIR | 3 | 7.17E−01 micrograms/L AIR | 2 | 7.17E−01 micrograms/L AIR | 2 | – |
| c1ccc(CCCc2ccccn2)cc1 [2-(3-PHENYLPROPYL)PYRIDINE] | 1.43E−04 micrograms/L AIR | 3 | – | – | 1.43E−04 micrograms/L AIR | 3 | – |
| CC/C=C\CC/C=C/C=O [(2E,6Z)-2,6-NONADIENAL] | 1.13E−03 micrograms/L AIR | 3 | 5.67E−04 micrograms/L AIR | 3 | 2.83E−03 micrograms/L AIR | 3 | – |
| C[C@@H]1C/C=C\CCCCCCCCCC(=O)C1 [(+)-(3R,5Z)-3-METHYL-5-CYCLOPENTADECEN-1-ONE] | 5.50E−01 micrograms/L AIR | 2 | 2.75E−01 micrograms/L AIR | 2 | 1.65E−01 micrograms/L AIR | 2 | – |
| C/C=C/c1ccc(OCC)c(O)c1 [(E)-2-ETHOXY-5-(1-PROPENYL)PHENOL] | 4.50E−03 micrograms/L AIR | 3 | 4.50E−02 micrograms/L AIR | 3 | 1.80E−02 micrograms/L AIR | 3 | – |
| CCOC(=O)C12CCCC1C1CCC2C1 (stereo not shown) [ethyl tricyclo[5.2.1.0.(2,6)]decane-2-carboxylate] | – | – | – | – | 1.07E−01 micrograms/L AIR | 3 | 43% |
| (+−)-(3E)-4-(2,6,6-trimethyl-1/2-cyclohexen-1-yl)-3-buten-2-one | 2.00E−01 micrograms/L AIR | 3 | 8.00E−01 micrograms/L AIR | 2 | 4.00E−01 micrograms/L AIR | 3 | – |
| TRICYCLO[5.2.1.0(2,6)]DEC-3/4-EN-8-YL PROPANOATE | – | – | 1.42E−01 micrograms/L AIR | 2 | 7.08E−02 micrograms/L AIR | 3 | – |
